According to a melting point compilation (Tetko et al.; mined from patent text by program, amines drawn as free bases though some values may be those of a salt):

melting point [°C] | Structure (SMILES)
206 to 208 | CCCCN(C(C)=O)C1NC(=O)N(c2ccc(OC(C)=O)cc2)C(=O)N1
217 | CCc1ccc2c(c1)C=Cc1cc(C)ccc1C2c1cn(-c2ccnc(NCC(=O)Nc3nc(CC(=O)O)cs3)n2)c(=O)[nH]c1=O (configuration not stated)
91 | COCc1cc2c([N+](=O)[O-])cccc2cn1
194 to 195 | Cc1c(C)c2c(c(C)c1NC(=O)CC(C)(C)C)C(c1ccc(F)cc1)C(C)(C)O2 (configuration not stated)
198 to 202 | COc1ccc(-c2cnc(NC(=O)Cc3ccccc3)c(Cc3ccccc3)n2)cc1
132 | N#Cc1cccc(Oc2ccccc2N)c1C#N
123 to 124 | CS(=O)(=O)Oc1ccc([N+](=O)[O-])c(O)c1
249 to 250 | CCOC1CC(n2cc(CC)c(=O)[nH]c2=O)OC1CNC(=O)Cc1c(Cl)cccc1Cl (configuration not stated)
216 | Cc1c(C(=O)O)cnn1-c1nc(-c2ccccc2C(F)(F)F)cs1
58 to 59 | OCC(O)(CO)c1ccc(F)cc1F
95 | CCOC(=O)C1Cc2c(OC)cc(Cl)c(OC)c2CO1 (configuration not stated)
156 to 158 | Cc1cn2cc(Cl)cc(Cl)c2n1
207 to 208 | O=C(Nc1cnc(N2CCCC2)cc1C(F)(F)F)c1cc2cc(C(F)(F)F)cnc2n1Cc1cccc(F)c1
113 to 115 | CC12C=CCC1C1CCC3CC(O)CCC3C1CC2 (configuration not stated)
115 to 116 | CCCCc1nc2c(N)nc3cccnc3c2n1CC(C)C
94 to 95 | CC(C)(C)c1ccc(O)c(S(=O)(=O)CCl)c1
248 to 255 | C(=C\c1cc(/C=C/c2ccccc2-c2cccnc2)[nH]n1)/c1ccc2cc[nH]c2c1
193 | O=C(CC1CC1)N[C@H]1CC[C@H](CCN2CCN(c3nccc4c3CCO4)CC2)CC1
> 350 | CC(C)(C)OC(=O)c1ccc(C=Cc2cnc3nc(N)nc(N)c3c2)cc1
163 to 165 | CCCCCCCCCCOc1ccc(C(=NO)c2cccc(C(=O)O)c2)cc1CCC(=O)O
208 to 210 | Cc1nc2cnccc2n1-c1ccc(C2=Nc3ccccc3NC(=O)C2)cn1
103 to 105 | CC(=O)NC(=O)CSC(=O)c1ccco1

melting point [°C] | Structure (SMILES)
174 to 176 | CC(C(=O)O)(c1ccc(N2CCCC2)cc1)c1ccc(N2CCCC2)cc1
255 to 256 | Nc1ccc(N2CCCC2)c(S(=O)(=O)O)c1
130 to 132 | CCOP(=O)(CCNCc1c(N)c(=O)c1=O)OCC
81 to 83 | O=S(=O)(c1ccccc1)n1c(-c2cccc(C(O)c3cc4ccccc4n3S(=O)(=O)c3ccccc3)c2)cc2ccccc21 (configuration not stated)
146 to 147 | CCCc1nn(-c2ccc(C(F)(F)F)cn2)cc1CCCOc1c(C#N)cccc1CC(=O)O
162 | CCOc1nn(C(=O)NS(=O)(=O)c2c(C(=O)N(C)C)csc2C)c(=O)n1C
157 | COC(=O)CCCc1cc2cc(Cl)ccc2n1S(=O)(=O)c1ccc(N)c([N+](=O)[O-])c1
69 to 72 | O=C(OCCc1ccccc1)ON1C(=O)CCC1=O
109 to 111 | CC(=O)NCC1CN(c2ncccc2Cl)C1
116 to 119 | CC(C)NCC#CC(O)c1ccccc1-c1ccccc1 (configuration not stated)
143 to 145 | CCCCC(=O)Nc1ccc(Cl)c(-n2nc(CC)n(Cc3ccc(-c4ccccc4S(=O)(=O)NC(=O)OC(C)(C)C)cc3F)c2=O)c1
68 | CCCCC(CC)COC(=O)C(C#N)=Cc1ccc(NC(=O)C(CC)CCCC)cc1 (configuration not stated)
190 | CC(C)(C)c1cc(Cn2nc(CCCCc3nn(Cc4cc(C(C)(C)C)c(O)c(C(C)(C)C)c4)c(=O)o3)oc2=O)cc(C(C)(C)C)c1O
157 to 159 | Cc1nnc(SCC2=C(C(=O)OC(c3ccccc3)c3ccccc3)N3C(=O)C(N)C3SC2)s1 (configuration not stated)
131 to 132 | O=C(O)Cc1ccccc1OCc1cn(-c2ccc(C(F)(F)F)cn2)nc1C1CCCCC1
202 | CCOC(=O)Cc1c(C(=O)O)c2cc(Oc3ccc(C(F)(F)F)cn3)ccc2n1-c1ccc(OC(C)C)cc1
156 to 158 | O=[N+]([O-])c1cc(CO)cc([N+](=O)[O-])c1-c1ccc(O)cc1
109 to 111 | Cc1ccccc1NCN1C(=O)CSC1=O
220 to 224 | CN1CCN(CNC(=O)c2cccc(Nc3nccc(-c4cccnc4)n3)c2)CC1
84 | COc1cccc(C(=O)c2ccc([N+](=O)[O-])c(C=O)c2)c1
132 to 135 | CC(=O)OCCCOc1cccc2cc(C#N)c(=O)oc12
> 250 | O=C(O)C1=CSC2C(=Cc3nc4ncc5c(n4n3)CCC3(C5)OCCO3)C(=O)N12 (configuration not stated)

melting point [°C] | Structure (SMILES)
109 | Fc1ccccc1Cn1nc(-c2nc(C(F)(F)F)cc(C(F)(F)F)n2)c2cccnc21
184 to 185 | CC1CC(=O)NN=C1c1ccc2c(c1)N(C)C(=O)C(C)O2 (configuration not stated)
246 | CCCCN1CC(=O)N2[C@@H](c3ccc(NC(C)=O)cc3)c3[nH]c4ccccc4c3C[C@@H]2C1=O (relative stereo)
194 to 196 | COc1ccc(-n2c3c(c(=O)c4cccnc42)CC(C)O3)cc1 (configuration not stated)
159 to 161 | ClC(Cl)=CCOc1cc(Cl)c(OCCCOc2ccc(-c3nn[nH]n3)cc2)c(Cl)c1
251 to 254 | CN1CCC(c2c[nH]c3ccc(-n4ccnn4)cc23)CC1
124 | Cc1nc2c(OCc3c(Cl)ccc(S(=O)(=O)N4CCC[C@H]4C(=O)NCc4ccc(C=NN)cc4)c3Cl)cccn2c1Br
122 | CCON=C(CC)C1=C(O)CC(c2cc3c(cc2[N+](=O)[O-])OCO3)CC1=O (configuration not stated)
73 to 77 | CCCCCCCCCCCCCCCCCC(=O)NC(=O)OCc1nc(C(C)C)c(Sc2cc(Cl)cc(Cl)c2)n1Cc1ccncc1
139 | COC(=O)Oc1ccc(C=Nc2ccc(C#N)cc2)cc1
63 to 64 | COc1ccc(-n2cc(C)cc2-c2ccc(S(N)(=O)=O)cc2)cc1
124 to 125 | C=CC(=O)N[C@@H](C=O)[C@@H](O)[C@H](O)[C@H](O)CO
129 to 130 | OC(c1ccccc1)C1CCN(CCCN(c2ccccc2)c2ccccc2)CC1 (configuration not stated)
144 to 146 | O=C(O)CCc1ccc(NS(=O)(=O)c2ccc(Cl)cc2)cn1
86 to 87 | CN(CCCl)C(=O)Nc1ccc([N+](=O)[O-])cc1C(F)(F)F
179 | COC(=O)c1c(C(=O)OC)c(-c2ccc(OC)c(OC)c2)c2c(O)c(OC)c(OC)cc2c1O
126 to 127 | CCC(=O)Nc1ccc(C(=O)C(C)Br)cc1 (configuration not stated)
178 to 180 | OCCN1CCC(=C2c3ccccc3Sc3ccc(Cl)cc32)CC1
216 | Cc1cc(C#N)c(C)c(C(=O)Nc2ccc(C#N)cn2)n1
190 to 192 | O=C(Nc1c(C(O)(C(F)(F)F)C(F)(F)F)ccc2ccccc12)c1cccc(F)c1
303 to 304 | O=C(O)c1cccc(-c2ccc3[nH]cc(-c4ccc(Cl)cc4Cl)c3c2)c1
247 to 249 | COc1cc2c(=O)c(Cc3cccnc3)cn3c4cc(Br)ccc4c(=O)c(c1)c23

Structure (SMILES) | melting point [°C]
CCN(CC)CC(O)c1c(OC)ccc2c(C)c(C)oc12 (configuration not stated) | 55
